The values that follow come from article PMC7297445, “Pharmacokinetic/Pharmacodynamic Determination and Preclinical Pharmacokinetics of the β-Lactamase Inhibitor ETX1317 and Its Orally Available Prodrug ETX0282” (ACS Infectious Diseases, 2020).

Data set [1] can be described thus: Plasma protein binding across species. The following applies: monkey, human, mouse, rat, dog, range across species, 1 to 100 μM. The class given is in vitro ADME, monkeys, humans, mice, rats, and dogs. As for the experimental part:
Intravenous and oral pharmacokinetics of ETX1317 and ETX0282 in preclinical species are summarized in Table 7 and Table S1, respectively. Time vs concentration profiles are depicted graphically in Figure S1.
Plasma protein binding was determined by rapid equilibrium dialysis. Plasma was freshly prepared from blood samples drawn in to EDTA (anticoagulant) containing tubes. Plasma was prepared using a table-top centrifuge and spun per instruction of the tube manufacturer and specifications (Beckton, Dickinson and Company, Franklin Lakes, NJ) and placed on ice prior to use.
Pooled plasma samples were centrifuged at 2000 rpm (approximately 1400g) for 15 min at 4 °C to remove debris. Approximately 90% of the clear supernatant fraction was transferred to a separate tube. Samples (500 μL) were then spiked with a 100× stock solution 100 μM, 0.5 mM, and 10 mM ETX1317 in DMSO respectively for 1, 5, and 100 μM final concentrations, transferred to the top of the filter chambers, and allowed to equilibrate for 15 min prior to centrifugation. The filtrate tubes were centrifuged at 14000g for 15 min at 4 °C. Next, 50 μL of the filtrate was precipitated with 300 μL of acetonitrile containing 250 ng/mL of carbutamide as the internal standard and the samples were analyzed by LC/MS/MS analysis.

Data set [2] concerns Enterobacteriaceae isolates. The data set is described as follows: Hollow-fiber and chemostat models, strains combined. The class given is cell-based, E. coli, K. pneumoniae. As to the method: The PK/PD driver of ETX1317 was assessed in the presence of CPD in both hollow-fiber[28]−[31] and chemostat[32]in vitro infection model systems. In all cases, CPD was administered q12h via a 2 h infusion and eliminated with a 2 h half-life, with the concentration of drug exceeding the MIC (the MIC of CPD in the presence of ETX1317 at a 1:2 ratio) for 50% of the dosing interval for each strain. Representative Emax plots are shown graphically for Escherichia coli ARC2687 in the hollow-fiber model and Klebsiella pneumoniae ARC4420 in the chemostat system (Figure 2). […] This could partially be attributed to the distribution of the concentration ranges utilized for the hollow-fiber infection model (HFIM) where most of the data scatter occurred in the efficacious dose range for lower MIC strains. It is important to note that initial evaluation of K. pneumoniae ARC4420 and ARC5118 was completed in the HFIM but rapid degradation of CPD, presumably through accumulation of β-lactamases in the extra-capillary space of the cartridge precluded a reliable assessment of the PK/PD driver with these strains in this model.[32] […] In both the HFIM and chemostat models the optimum critical threshold of ETX1317 was established through iterative Emax fitting of a range of ETX1317 concentrations from 0.5× to 2× the CPD:ETX1317 MIC value. In the HFIM, %Time > ETX1317 CT of 2× MIC provided the highest correlation to observed activity which appeared to be independent to the apparent intrinsic activity of ETX1317 (as reflected by ETX1317 MICBLI of K. pneumoniae ARC4486 vs ARC4488). […] In both models CPD infused alone mimicked vehicle control as expected with similar growth of +2 to 4 log10 CFU/mL.
PK/PD-derived exposure targets for BLIs have utilized various approaches for clinical dose setting. The use of a singular critical threshold value independent of MIC has been used for recent BL/BLI combinations such as ceftazidime/avibactam[34] aztreonam/avibactam,[35] but this has been problematic to correlate activity across a broad range of MICs. More recent work with ceftolozane/tazobactam[36] and other BLI combinations[37],[38] considers a critical threshold value that varies proportionally to the MIC value. […] Convergence of the data to a threshold value related to MIC simplifies dose setting and, in this case, appears to be consistent across a broad range of susceptibility (0.125–1 μg/mL).
Dose range and dose fractionation were performed in hollow-fiber infection model (HFIM) and chemostat (one-compartment) in vitro infection model. […] CPD concentrations were targeted to achieve exposure of ∼50%Time > MIC determined in the presence of ETX1317. […] Bacterial burden (CFU/mL) was serially assessed by sampling (500 μL) from the extra-capillary space of the HFIM cartridge at predetermined time points. […]

Broadly, the fraction unbound is the share of the substance not bound to proteins or other matrix. Low values mean little free substance, high ones much free substance. `CC1=C[C@@H](C(N)=O)N2C[C@@H]1N(O[C@H](F)C(=O)O)C2=O` [ETX1317]: in data set [1], the fraction unbound at 15 min lay in the range of 0.77 to 1. For the same compound, the growth result in data set [2] (infused alone q12h to a Cmax of 16 μg/mL, 100%Time > MICBLI) is listed as “+0.5 log”. In addition, the “% of dosing interval with unbound concentration > 2× MIC associated with reducing bacterial burden below stasis” value in data set [2] (with CPD) was found to be 50%. For the same compound, in data set [2] (with CPD 50%Time > MIC, in vitro and in vivo models), the “% of dosing interval with concentration > 2× MIC for cidal activity” value came to 60%.
